One test deals with Plasmodium falciparum. In words: Antiplasmodial activity against Plasmodium falciparum 3D7 assessed as inhibition of parasite growth at 8.66 ug/ml by SYBR Green I dye based assay. It counts as functional, organism-based.

Molecules are shown by their SMILES. Calls of active or inactive are those of the source. No rule for the calls is given here. A value given as a limit tells only on which side of the number the result lay.

Description for Measles morbillivirus: Antiviral activity against measles virus rMV2/Luc infected in HEK-293T cells assessed as inhibition of virus growth incubated for 24 hrs by firefly luciferase reporter gene assay

For the compound `Cc1c(Oc2c(F)cccc2F)c(OC(C)C)nn1-c1ccccn1`, the “growth inhibition (GI)” value in the test with Plasmodium falciparum was “inactive”. The compound also had a pMIC50 in the test on Measles morbillivirus of less than 5.
For `CCOc1nn(-c2ccc(C3CC3)nn2)c(C)c1Oc1ccccc1Br`, in that order: “inactive” and 7.2.
For `Cc1c(Oc2cccc(F)c2)c(OC(C)C)nn1-c1ccc(C2CC2)nn1`, in that order: “inactive” and 6.4.
Taken in the same sequence, the figures for `CCOc1nn(-c2ccc(C(C)(C)O)cn2)c(C)c1Cc1ccccc1` were “inactive” and 5.3.
With `Cc1c(Oc2ccc(F)cc2F)c(OC(C)C)nn1-c1ccc(C2CC2)cn1`, the “growth inhibition (GI)” value with Plasmodium falciparum was “inactive”. This compound also showed a pMIC50 in the test with Measles morbillivirus of 6.5.
For `CCOc1nn(-c2cccc(C)n2)c(C)c1Cc1ccccc1`, in that order: “inactive” and less than 5.
For `CCOc1nn(-c2ccc(C3CC3)cn2)c(C)c1Oc1cc(Cl)cc(Cl)c1`, the “growth inhibition (GI)” value in the test on Plasmodium falciparum is “inactive”. In addition, the pMIC50 in the test on Measles morbillivirus amounted to 6.9.
Taken in the same sequence, the figures for `CCc1ccc(-n2nc(OC(C)C)c(Oc3c(F)cccc3F)c2C)nc1` were “inactive” and 7.1.
For `CCOc1nn(-c2ccc(C3CC3)cn2)c(C)c1Oc1ccccc1`, in that order: “inactive” and 7.
Taken in the same sequence, the figures for `Cc1cc(Br)cnc1-n1nc(OC(C)C)c(Oc2c(F)cccc2F)c1C` were “inactive” and 5.9.
On to `Cc1c(Oc2ccc(F)cc2)c(OC(C)C)nn1-c1ccc(C2CC2)nn1`, for which the “growth inhibition (GI)” value in the test with Plasmodium falciparum is “inactive”. The pMIC50 in the test on Measles morbillivirus came out at 5.6.
For `Cc1c(Oc2c(F)cccc2F)c(OC(C)C)nn1-c1ccc(Br)cn1`, in that order: “inactive” and 6.3.
For `Cc1c(Oc2c(F)cccc2F)c(OC(C)C)nn1-c1ccc(C(F)(F)F)cn1`, in that order: “inactive” and 6.5.
In the case of `Cc1c(Oc2c(F)cccc2F)c(OC(C)C)nn1-c1ncc(C2CC2)cc1OCc1ccccc1`, the “growth inhibition (GI)” value in the test on Plasmodium falciparum is “inactive”. In the test with Measles morbillivirus, this compound showed a pMIC50 of 7.
Taken in the same sequence, the figures for `Cc1c(Oc2c(F)cccc2F)c(OC(C)C)nn1-c1ccc(C(C)(C)O)cn1` were “inactive” and 6.7.
As for `Cc1c(Oc2cccc(F)c2)c(OC(C)C)nn1-c1ccc(C2CC2)cn1`, the “growth inhibition (GI)” value with Plasmodium falciparum is “inactive”. The same compound displayed a pMIC50 in the test on Measles morbillivirus of 6.8.
Taken in the same sequence, the figures for `COc1cnc(-n2nc(OC(C)C)c(Oc3c(F)cccc3F)c2C)cn1` were “inactive” and 6.1.
Taken in the same sequence, the figures for `Cc1c(Oc2cc(F)ccc2F)c(OC(C)C)nn1-c1ccc(C2CC2)nn1` were “inactive” and 7.
For `CCOc1nn(-c2ccc(C3CC3)nn2)c(C)c1Oc1cc(Cl)ccc1Cl`, in that order: “inactive” and 6.9.
Regarding `CCOc1nn(-c2ccc(C3CC3)cn2)c(C)c1Oc1ccccc1F`, in the test on Plasmodium falciparum, the “growth inhibition (GI)” value was “inactive”. Moreover, the pMIC50 in the test on Measles morbillivirus turned out to be 7.7.
Taken in the same sequence, the figures for `CCOc1nn(-c2ccc(OC)cn2)c(C)c1Cc1ccccc1` were “inactive” and 5.5.
For `CCOc1nn(-c2ncc(Br)cc2C)c(C)c1Cc1ccccc1`, in that order: “inactive” and less than 5.
For `Cc1c(Oc2ccccc2F)c(OC(C)C)nn1-c1ccc(C2CC2)nn1`, in that order: “inactive” and 7.4.
Consider `CCOc1nn(-c2cc(C)ccn2)c(C)c1Cc1ccccc1`, for which the “growth inhibition (GI)” value with Plasmodium falciparum is “inactive”. In the test on Measles morbillivirus, the pMIC50 is reported as 5.4.
As for `CCOc1nn(-c2ccc(C3CC3)cn2)c(C)c1Oc1cc(Cl)ccc1Cl`, the “growth inhibition (GI)” value in the test on Plasmodium falciparum is “inactive”. The pMIC50 with Measles morbillivirus was 7.1.

For the origin of these results see ChEMBL document CHEMBL3588748, “Original 2-(3-Alkoxy-1H-pyrazol-1-yl)azines Inhibitors of Human Dihydroorotate Dehydrogenase (DHODH)” (J Med Chem, 2015).
